Measurements taken from patent publication US20250163059A1, “HETEROCYCLIC KINASE INHIBITORS” (Incyte Corporation, priority 2023, published 2025).

Columns and labels:
[1] = target: T1, catalytic domain (JH1) of JAK2 protein (Homo sapiens, UniProt O60674); experiment: JAK2 (JH1) Enzymatic Assay at ATP=Km (30 μM), TR-FRET; assay type: biochemical; conditions: 30 μM ATP (=Km), 60 min at 25° C., read-out: V617F ENZ 30 μM
T1 construct: phosphorylated on the tyrosine residue by catalytic domain (JH1) of JAK2 protein; purchased BPS 40450
T1 sequence (O60674 849-1124 limits assumed): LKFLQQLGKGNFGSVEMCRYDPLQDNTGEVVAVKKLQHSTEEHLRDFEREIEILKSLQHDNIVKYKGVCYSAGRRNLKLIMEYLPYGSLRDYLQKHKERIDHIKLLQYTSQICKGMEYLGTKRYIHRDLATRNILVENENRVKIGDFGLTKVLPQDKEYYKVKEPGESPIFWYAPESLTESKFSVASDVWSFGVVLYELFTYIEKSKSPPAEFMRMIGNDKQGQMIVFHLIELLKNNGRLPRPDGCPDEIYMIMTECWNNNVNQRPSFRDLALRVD
Procedure: Example A. JAK2 (JH1) Enzymatic Assay at ATP=Km (30 μM)
Inhibitor potency was determined in TR-FRET assay, which measures HTRF signal generated as a result of Eu-labeled anti-phosphotyrosine antibody binding to Biotin-labeled peptide, phosphorylated on the tyrosine residue by catalytic domain (JH1) of JAK2 protein in the presence of ATP-Mg and Allophycocyanin-streptavidin (APC-SA). JH1 domain of JAK2 protein was purchased from BPS (#40450), Eu-W1204-labeled Anti-Phosphotyrosine Antibody (PY-20) and SureLight Allophycocyanin-streptavidin were purchased from PerkinElmer (#AD0067 and #AD0201). Peptide Biot-EQEDEPEGDYFEWLEES-amide (SEQ ID NO.: 1) was purchased from Quality Controlled Biochemicals, MA (Q307-166). Assay buffer consisted of 50 mM Tris, pH=7.5, 10 mM MgCl2, 0.01% Brij-35, 0.1% BSA, 1 mM EGTA, 5% Glycerol and 5 mM DTT. To assess the inhibition of the enzymatic activity, compound was serially diluted in DMSO and a volume of 0.1 μL was transferred to the wells of a black regular volume 384-well plate (Greiner #781076) using Echo Liquid Handler (Labcyte Inc.). Positive and Negative control wells contained 0.1 μL of DMSO.
Enzyme (catalytic domain JH1 of JAK2) was diluted in assay buffer, and the Multidrop Combi liquid handler (Thermo Scientific) was used to dispense 10 μL to each well (except positive control wells, to which 10 μL of assay buffer were dispensed instead of protein).
Plate was centrifuged and reaction was started by addition of 10 μL of substrate solution containing biotinylated peptide and ATP to all wells. Plate was again centrifuged and enzymatic reaction was allowed to proceed for 60 min. at 25° C. Final concentrations in the assay were as follows: 0.02 nM protein, 30 uM ATP, 0.5 uM biotinylated peptide. Reaction was stopped by addition of 10 μL of solution, containing 45 mM EDTA, 144 nM APC/225 nM Streptavidin, and 4.5 nM Eu-Ab in detection buffer: 50 mM Tris, pH=7.8, 150 mM NaCl, 0.5 mg/ml BSA.
Plate was centrifuged and incubated for 30 min. at room temperature. HTRF signal was measured on PHERAstar plate reader instrument (BMG Labtech) with excitation at 337 nm and emissions at 620 nm and 665 nm. Data analysis tools integrated in Genedata Screener software were used to analyze the results. Raw data was normalized to percent of vehicle (DMSO) Negative control, after subtracting no-enzyme Positive inhibitor control. The IC50 values were derived by fitting the data to a four parameter logistic equation producing a sigmoidal dose-response curve using the following equation: Y=Bottom+(Top−Bottom)/(1+10^((Log IC50−X)*Hill slope)) where X is the logarithm of inhibitor concentration and Y is the response.

[2] = target: T2, pseudo-kinase domain (JH2) of human V617F mutant JAK2 (Homo sapiens, UniProt O60674, F794H/V617F/W659A/W777A); experiment: JAK2 LanthaScreen JH2-V617F Binding Assay; conditions: 50 nM Fluorescent JAK2-JH2 Tracer, 1 hour at 25° C., read-out: JH2 BIND V617F
T2 construct: pseudo-kinase domain (JH2, amino-acids 536-812 with 3 surface mutations W659A, W777A, F794H); purchased BPS Bioscience 79498; host or cells: baculovirus expression system
T2 sequence (O60674 536-812 V617F/W659A/W777A/F794H): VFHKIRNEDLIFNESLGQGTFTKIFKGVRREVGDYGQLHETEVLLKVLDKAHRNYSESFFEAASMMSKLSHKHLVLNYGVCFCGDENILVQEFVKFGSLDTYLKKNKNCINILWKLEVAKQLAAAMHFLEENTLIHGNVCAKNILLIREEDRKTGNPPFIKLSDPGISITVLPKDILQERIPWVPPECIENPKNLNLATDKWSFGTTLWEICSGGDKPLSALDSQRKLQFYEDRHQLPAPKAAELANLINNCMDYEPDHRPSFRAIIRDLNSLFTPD
Procedure: Example B. JAK2 LanthaScreen JH2-V617F Binding Assay
JAK2 JH2-V617F binding assay utilizes pseudo-kinase domain (JH2, amino-acids 536-812 with 3 surface mutations W659A, W777A, F794H) of human V617F mutant JAK2 expressed as C-terminal His-Avi-tagged, biotinylated protein in a baculovirus expression system (BPS Bioscience, Catalog #79498). The assay was conducted in black 384-well polystyrene plates in a final reaction volume of 20 μL. JAK2 JH2-V617F (0.26 nM) was incubated with compounds (100 nL serially diluted in DMSO) in the presence of 50 nM Fluorescent JAK2-JH2 Tracer (MedChem Express Catalog #HY-102055) and 0.25 nM Streptavidin-Tb cryptate (Cisbio Part #610SATLB) in assay buffer (50 mM Tris, pH=7.5, 10 mM MgCl2, 0.01% Brij-35, 0.1% BSA, 1 mM EGTA, 5% Glycerol and 5 mM DTT). Non-specific binding was accessed in the presence of 2 mM ATP. After incubation for 1 hour at 25° C., LanthaScreen signals were read on a PHERAstar FS plate reader (BMG LABTECH). Data was analyzed with IDBS XLfit and GraphPad Prism 5.0 software using a four parameter dose response curve to determine IC50 for each compound.

| Compound | IC50 [1] | IC50 [2] |
| --- | --- | --- |
| CNc1ncc(-c2cccc(-c3cnn(C4CN(Cc5cccc(C(=O)N(C)C)n5)C4)c3)c2OC)c2cc(NC(=O)C3CC3)ncc12 [Example 1, 6-((3-(4-(3-(6-(Cyclopropanecarboxamido)-1-(methylamino)-2,7-naphthyridin-4-yl)-2-methoxyphenyl)-1H-pyrazol-1-yl)azetidin-1-yl)methyl)-N,N-dimethylpicolinamide] | > 1000 nM | ≤ 10 nM |
| CNc1ncc(-c2cccc(-c3cnn(C4CN(Cc5cccc(C(=O)N(C)C6CC6)n5)C4)c3)c2OC)c2cc(NC(=O)C3CC3)ncc12 [Example 2, 6-((3-(4-(3-(6-(Cyclopropane-carboxamido)-1-(methylamino)-2,7-naphthyridin-4-yl)-2-methoxyphenyl)-1H-pyrazol-1-yl)azetidin-1-yl)methyl)-N-cyclopropyl-N-methyl-picolinamide] | > 1000 nM | ≤ 10 nM |
| CNc1ncc(-c2cccc(-c3cnn(C4CN(Cc5cccc(C(=O)N(C)CC(F)(F)F)n5)C4)c3)c2OC)c2cc(NC(=O)C3CC3)ncc12 [Example 3, 6-((3-(4-(3-(6-(Cyclopropane-carboxamido)-1-(methylamino)-2,7-naphthyridin-4-yl)-2-methoxyphenyl)-1H-pyrazol-1-yl)azetidin-1-yl)methyl)-N-methyl-N-(2,2,2-trifluoroethyl) picolinamide] | > 1000 nM | ≤ 10 nM |
| CNc1ncc(-c2cccc(-c3cnn(C4CN(Cc5cccc(C(=O)N6CCCC6)n5)C4)c3)c2OC)c2cc(NC(=O)C3CC3)ncc12 [Example 4, N-(5-(2-Methoxy-3-(1-(1-((6-(pyrrolidine-1-carbonyl)pyridin-2-yl)methyl)azetidin-3-yl)-1H-pyrazol-4-yl)phenyl)-8-(methylamino)-2,7-naphthyridin-3-yl)cyclopropane-carboxamide] | > 1000 nM | ≤ 10 nM |
| CNc1ncc(-c2cccc(-c3cnn(C4CN(Cc5csc(C(=O)N(C)CC(F)(F)F)n5)C4)c3)c2OC)c2cc(NC(=O)C3CC3)ncc12 [Example 5, 4-((3-(4-(3-(6-(Cyclopropane-carboxamido)-1-(methylamino)-2,7-naphthyridin-4-yl)-2-methoxyphenyl)-1H-pyrazol-1-yl)azetidin-1-yl)methyl)-N-methyl-N-(2,2,2-trifluoroethyl) thiazole-2-carboxamide] | > 1000 nM | 10 to 100 nM |
| CNc1ncc(-c2cccc(-c3cnn(C4CN(Cc5cccc(S(C)(=O)=O)n5)C4)c3)c2OC)c2cc(NC(=O)C3CC3)ncc12 [Example 6, N-(5-(2-Methoxy-3-(1-(1-((6-(methylsulfonyl)pyridin-2-yl)methyl)azetidin-3-yl)-1H-pyrazol-4-yl)phenyl)-8-(methylamino)-2,7-naphthyridin-3 yl)cyclopropane carboxamide] | > 1000 nM | ≤ 10 nM |
| CNc1ncc(-c2cccc(-c3cnn(C4CN(Cc5cccc(C(F)F)n5)C4)c3)c2OC)c2cc(NC(=O)C3CC3)ncc12 [Example 7, N-(5-(3-(1-(1-((6-(Difluoromethyl)pyridin-2-yl)methyl)azetidin-3-yl)-1H-pyrazol-4-yl)-2-methoxyphenyl)-8-(methylamino)-2,7-naphthyridin-3-yl)cyclopropanecarboxamide] | > 1000 nM | ≤ 10 nM |
| CNc1ncc(-c2cccc(-c3cnn(C4CN(C(=O)c5cccc(C(=O)N(C)C)n5)C4)c3)c2OC)c2cc(NC(=O)C3CC3)ncc12 [Example 8, 6-(3-(4-(3-(6-(Cyclopropanecarboxamido)-1-(methylamino)-2,7-naphthyridin-4-yl)-2-methoxyphenyl)-1H-pyrazol-1-yl)azetidine-1-carbonyl)-N,N-dimethylpicolinamide] | > 1000 nM | ≤ 10 nM |
| CNc1ncc(-c2cccc(-c3cnn(C4CCN(Cc5ccccn5)CC4)c3)c2OC)c2cc(NC(=O)C3CC3)ncc12 [Example 9, N-(5-(2-Methoxy-3-(1-(1-(pyridin-2-ylmethyl)piperidin-4-yl)-1H-pyrazol-4-yl)phenyl)-8-(methylamino)-2,7-naphthyridin-3-yl)cyclopropanecarboxamide] | > 1000 nM | 10 to 100 nM |
| CNc1ncc(-c2cccc(-c3cnn(C(C)C(=O)O)c3)c2OC)c2cc(NC(=O)C3CC3)ncc12 (stereo not drawn) [Example 10, 2-(4-(3-(6-(Cyclopropanecarboxamido)-1-(methylamino)-2,7-naphthyridin-4-yl)-2-methoxyphenyl)-1H-pyrazol-1-yl)propanoic acid] | > 1000 nM | 10 to 100 nM |
| CNc1ncc(-c2cccc(-c3cnn(C4CN(Cc5cccc(C(=O)N(C)C)n5)C4)c3)c2OC)c2cc(NC(=O)C3CC3)nnc12 [Example 11, 6-((3-(4-(3-(3-(Cyclopropanecarboxamido)-8-(methylamino)pyrido[3,4-c]pyridazin-5-yl)-2-methoxyphenyl)-1H-pyrazol-1-yl)azetidin-1-yl)methyl)-N,N-dimethylpicolinamide] | > 1000 nM | ≤ 10 nM |
| CNc1ncc(-c2cccc(-c3cnn(C4CN(Cc5cccc(C(=O)N(C)C6CC6)n5)C4)c3)c2OC)c2cc(NC(=O)C3CC3)nnc12 [Example 12, 6-((3-(4-(3-(3-(Cyclopropanecarboxamido)-8-(methylamino)pyrido[3,4-c]pyridazin-5-yl)-2-methoxyphenyl)-1H-pyrazol-1-yl)azetidin-1-yl)methyl)-N-cyclopropyl-N-methylpicolinamide] | > 1000 nM | ≤ 10 nM |
| CNc1ncc(-c2cccc(-c3cnn(C4CN(Cc5cccc(C(=O)N(C)CC6CC6)n5)C4)c3)c2OC)c2cc(NC(=O)C3CC3)nnc12 [Example 13, 6-((3-(4-(3-(3-(Cyclopropane-carboxamido)-8-(methylamino)pyrido[3,4-c]pyridazin-5-yl)-2-methoxy-phenyl)-1H-pyrazol-1-yl)azetidin-1-yl)methyl)-N-(cyclopropyl-methyl)-N-methyl-picolinamide] | > 1000 nM | ≤ 10 nM |
| CNc1ncc(-c2cccc(-c3cnn(C4CN(Cc5cccc(C(=O)N(C)CC(F)(F)F)n5)C4)c3)c2OC)c2cc(NC(=O)C3CC3)nnc12 [Example 14, 6-((3-(4-(3-(3-(Cyclopropane-carboxamido)-8-(methylamino)pyrido[3,4-c]pyridazin-5-yl)-2-methoxy-phenyl)-1H-pyrazol-1-yl)azetidin-1-yl)methyl)-N-methyl-N-(2,2,2-trifluoroethyl) picolinamide] | > 1000 nM | ≤ 10 nM |
| CNc1ncc(-c2cccc(-c3cnn(C4CN(Cc5cccc(C(=O)N6CCCC6)n5)C4)c3)c2OC)c2cc(NC(=O)C3CC3)nnc12 [Example 15, N-(5-(2-Methoxy-3-(1-(1-((6-(pyrrolidine-1-carbonyl)pyridin-2-yl)methyl)azetidin-3-yl)-1H-pyrazol-4-yl)phenyl)-8-(methylamino)pyrido[3,4-c]pyridazin-3-yl)cyclopropane-carboxamide] | > 1000 nM | ≤ 10 nM |
